Experimental data reported in US11938121B2, “Treatment of infections and biofilm formation using a cellulose synthase inhibitor” (Purdue Research Foundation, priority 2020, dated 2024).

Assays:
Arabidopsis Col-0 [1] = test: Arabidopsis Col-0 root growth and root swelling assay; format: in vivo, Arabidopsis thaliana; conditions: same dosage as ES20
Protocol: During the primary screening, we sowed Col-0 seeds on solid growth medium supplemented with 0.1% DMSO or 3 mg/L of different compounds with molar concentrations ranging from 5-10 μM. After 7 days of growth, we imaged the seedlings and evaluated the inhibitory effect of each chemical. Because disrupting cellulose biosynthesis by treating plants with a cellulose biosynthesis inhibitor or introducing mutations in the cellulose biosynthesis pathway often leads to root growth inhibition, root swelling, as well as ectopic lignin accumulation (Arioli et al., Science 1998, 279, 717-720; Huang et al., 2020), we first evaluated the ability of the compounds to inhibit root growth and cause root swelling. […] We grew wildtype seedlings on growth medium supplemented with DMSO (0.1%) or different concentrations of ES20 analogs for 7 days and quantified the crystalline cellulose content in root cell wall. […]
To test the inhibitory effects of different chemicals on plant growth, wild-type Arabidopsis Col-0 plants were used. […] To quantify the inhibitory effects of different ES20 active analogs on the root growth of Arabidopsis wildtype, EMS mutants, and transgenic plants expressing mutated AtCESA6 in prc1-1 background, sterilized Col-0, mutants, and transgenic plants seeds were sown on gridded Petri plates containing ½-strength MS medium supplemented with different concentrations of ES20 analogs. […]

Arabidopsis Col-0 [2] = test: Crystalline cellulose content measurement of cell wall; format: in vivo, Arabidopsis thaliana
Protocol: Arabidopsis Col-0 seeds were sown on growth medium supplemented with 0.1% DMSO, 1 μM ES20, or different concentrations of ES20 analogs. […] Cellulose extraction and measurement were performed as previously described (Huang et al., 2020).

With Cc1ccccc1C(=O)NNC(=S)NC(=O)c1ccccc1 [ES20-1] the “root growth inhibition compared with ES20” value (Arabidopsis Col-0 [1]) was “more strongly inhibited root growth than ES20”, the “crystalline cellulose content in hypocotyl cell wall” value (Arabidopsis Col-0 [2]; 1 μM, 7-day-old dark-grown seedlings, mean±SD, n=3) was 90 ± 6 µg/mg and the “reduction of crystalline cellulose levels in the hypocotyl” value (Arabidopsis Col-0 [2]; 1 μM, 7-day-old dark-grown seedlings, vs DMSO) was ~45%. For the same molecule, the “root cell wall crystalline cellulose content” value (Arabidopsis Col-0 [2]; 7-day-old light-grown seedlings, different concentrations) was “very potent in inhibiting cellulose biosynthesis in roots”.
